target: GTPase KRas (Homo sapiens, UniProt P01116, G12V); assay: Inhibition of His6-tagged KRas G12V mutant (unknown origin) expressed in Escherichia coli BL21(DE3) cells assessed as reduction in Ras/GST-fused Raf RBD interaction incubated for 1 hr by HTRF assay; settings: not given
Sequence (P01116 whole entry G12V, the tested form may be a part): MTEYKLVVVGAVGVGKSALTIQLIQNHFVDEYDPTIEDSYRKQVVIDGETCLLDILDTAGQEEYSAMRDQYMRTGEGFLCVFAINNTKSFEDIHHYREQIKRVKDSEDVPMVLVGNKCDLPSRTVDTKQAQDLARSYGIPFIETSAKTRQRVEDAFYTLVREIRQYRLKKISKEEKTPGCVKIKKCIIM

IC50 | SMILES
Not Active | C[C@@H]1NC(=O)[C@@H](Cc2ccccc2)NC(=O)[C@@H]2CCCCNC(=O)c3cc(cc(c3)C(=O)N[C@H](Cc3ccc4ccccc4c3)C(=O)N[C@@H](CO)C(=O)N[C@@H](CCC(N)=O)C(=O)N[C@H](Cc3ccc4ccccc4c3)C(=O)N[C@@H](c3ccccc3)C(=O)N2)C(=O)NC[C@@H](C(=O)N2CCC[C@@H]2C(=O)N[C@H](CCCNC(=N)N)C(=O)N[C@H](Cc2ccc3ccccc3c2)C(=O)N[C@@H](CCC(=O)O)C(N)=O)NC(=O)[C@H](CCCNC(=N)N)NC(=O)[C@@H](CCCNC(=N)N)NC1=O

test system: NCI-H358; assay: Antiproliferative activity against human NCI-H358 cells incubated for 96 hrs by Celltiter-Glo assay; format: functional, cell-based; settings: Homo sapiens, NCI-H358, 96 h; read-out: EC50; call rule not given here

SMILES | EC50
C[C@@H](NC(=O)[C@H](Cc1ccccc1)NC(=O)[C@@H](CCCNC(=N)N)NC(=O)[C@H](CCCN)NC(=O)[C@@H]1CNC(=O)c2cc3cc(c2)C(=O)N[C@H](Cc2csc4ccccc24)C(=O)N[C@@H](CO)C(=O)N[C@@H](CC(N)=O)C(=O)N[C@H](Cc2ccc4ccccc4c2)C(=O)N[C@@H](c2ccccc2)C(=O)N[C@@H](CCCCNC3=O)C(=O)N[C@H](Cc2ccccc2)C(=O)N[C@H](CCC(N)=O)C(=O)N[C@H](CCCNC(=N)N)C(=O)N[C@@H](CCCNC(=N)N)C(=O)N1)C(N)=O | 17 µM
C[C@@H]1NC(=O)[C@@H](Cc2ccccc2)NC(=O)[C@@H]2CCCCNC(=O)c3cc(cc(c3)C(=O)N[C@H](Cc3ccc4ccccc4c3)C(=O)N[C@@H](CO)C(=O)N[C@@H](CC(N)=O)C(=O)N[C@H](Cc3ccc4ccccc4c3)C(=O)N[C@@H](c3ccccc3)C(=O)N2)C(=O)NC[C@@H](C(=O)N[C@@H](CC(N)=O)C(=O)N[C@H](CCCNC(=N)N)C(=O)N[C@@H](Cc2cccc(Cl)c2)C(=O)N[C@H](C)C(N)=O)NC(=O)[C@H](CCCNC(=N)N)NC(=O)[C@@H](CCCNC(=N)N)NC1=O | 9 µM
C[C@@H]1NC(=O)[C@@H](Cc2ccccc2)NC(=O)[C@@H]2CCCCNC(=O)c3cc(cc(c3)C(=O)N[C@H](Cc3ccc4ccccc4c3)C(=O)N[C@@H](CO)C(=O)N[C@@H](CC(N)=O)C(=O)N[C@H](Cc3ccc4ccccc4c3)C(=O)N[C@@H](c3ccccc3)C(=O)N2)C(=O)NC[C@@H](C(=O)N[C@@H](CCN)CC(=O)N[C@H](CCCNC(=N)N)C(N)=O)NC(=O)[C@H](CCCNC(=N)N)NC(=O)[C@@H](CCCNC(=N)N)NC1=O | 16 µM
C[C@H](NC(=O)C[C@H](Cc1ccccc1)NC(=O)[C@@H](CCCNC(=N)N)NC(=O)[C@H](CCCN)NC(=O)[C@@H]1CNC(=O)c2cc3cc(c2)C(=O)N[C@H](Cc2ccc4ccccc4c2)C(=O)N[C@@H](CO)C(=O)N[C@@H](CC(N)=O)C(=O)N[C@H](Cc2ccc4ccccc4c2)C(=O)N[C@@H](c2ccccc2)C(=O)N[C@@H](CCCCNC3=O)C(=O)N[C@H](Cc2ccccc2)C(=O)N[C@H](CCC(N)=O)C(=O)N[C@H](CCCNC(=N)N)C(=O)N[C@@H](CCCNC(=N)N)C(=O)N1)C(N)=O | 7.4 µM
C[C@@H]1NC(=O)[C@@H](Cc2ccccc2)NC(=O)[C@@H]2CCCCNC(=O)c3cc(cc(c3)C(=O)N[C@H](Cc3ccc4ccccc4c3)C(=O)N[C@@H](CO)C(=O)N[C@@H](CC(N)=O)C(=O)N[C@H](Cc3ccc4ccccc4c3)C(=O)N[C@@H](c3ccccc3)C(=O)N2)C(=O)NC[C@@H](C(=O)N[C@@H](CCCN)C(=O)N[C@H](CCCNC(=N)N)C(=O)N[C@@H](CCc2ccccc2)C(=O)N[C@H](C)C(N)=O)NC(=O)[C@H](CCCNC(=N)N)NC(=O)[C@@H](CCCNC(=N)N)NC1=O | 9.2 µM

Other lines, results leading:

EC50 | SMILES
7.2 µM | CC[C@H]1NC(=O)[C@@H](Cc2ccccc2)NC(=O)[C@@H]2CCCCNC(=O)c3cc(cc(c3)C(=O)N[C@H](Cc3ccc4ccccc4c3)C(=O)N[C@@H](CO)C(=O)N[C@@H](CC(N)=O)C(=O)N[C@H](Cc3ccc4ccccc4c3)C(=O)N[C@@H](c3ccccc3)C(=O)N2)C(=O)NC[C@@H](C(=O)N[C@@H](CCCN)C(=O)N[C@H](CCCNC(=N)N)C(=O)N[C@@H](Cc2ccccc2)C(=O)N[C@H](C)C(N)=O)NC(=O)[C@H](CCCNC(=N)N)NC(=O)[C@@H](CCCNC(=N)N)NC1=O
7.1 µM | CC(C)[C@H](NC(=O)[C@H](Cc1ccccc1)NC(=O)[C@@H](CCCNC(=N)N)NC(=O)[C@H](CCCN)NC(=O)[C@@H]1CNC(=O)c2cc3cc(c2)C(=O)N[C@H](Cc2ccc4ccccc4c2)C(=O)N[C@@H](CO)C(=O)N[C@@H](CC(N)=O)C(=O)N[C@H](Cc2ccc4ccccc4c2)C(=O)N[C@@H](c2ccccc2)C(=O)N[C@@H](CCCCNC3=O)C(=O)N[C@H](Cc2ccccc2)C(=O)N[C@H](CCC(N)=O)C(=O)N[C@H](CCCNC(=N)N)C(=O)N[C@@H](CCCNC(=N)N)C(=O)N1)C(N)=O
6.4 µM | C[C@@H](NC(=O)[C@H](Cc1ccccc1)NC(=O)[C@@H](CCCNC(=N)N)NC(=O)[C@H](CCCN)NC(=O)[C@@H]1CNC(=O)c2cc3cc(c2)C(=O)N[C@H](Cc2ccc4ccccc4c2)C(=O)N[C@@H](CO)C(=O)N[C@@H](CC(N)=O)C(=O)N[C@H](Cc2ccc4ccccc4c2)C(=O)N[C@@H](c2ccccc2)C(=O)N[C@@H](CCCCNC3=O)C(=O)N[C@H](Cc2ccccc2)C(=O)N[C@H](CCCN)C(=O)N[C@H](CCCNC(=N)N)C(=O)N[C@@H](CCCNC(=N)N)C(=O)N1)C(N)=O
5.3 µM | N=C(N)NCCC[C@@H]1NC(=O)[C@@H](CCCNC(=N)N)NC(=O)[C@@H](CCC(N)=O)NC(=O)[C@@H](Cc2ccccc2)NC(=O)[C@@H]2CCCCNC(=O)c3cc(cc(c3)C(=O)N[C@H](Cc3ccc4ccccc4c3)C(=O)N[C@@H](CO)C(=O)N[C@@H](CC(N)=O)C(=O)N[C@H](Cc3ccc4ccccc4c3)C(=O)N[C@@H](c3ccccc3)C(=O)N2)C(=O)NC[C@@H](C(=O)N[C@@H](CCCN)C(=O)N[C@H](CCCNC(=N)N)C(=O)N[C@@H](Cc2ccccc2)C(=O)N[C@H](CO)C(N)=O)NC1=O
5.2 µM | C[C@@H](NC(=O)[C@H](Cc1ccccc1)NC(=O)[C@@H](CCCNC(=N)N)NC(=O)[C@H](CCCN)NC(=O)[C@@H]1CNC(=O)c2cc3cc(c2)C(=O)N[C@H](Cc2ccc4ccccc4c2)C(=O)N[C@@H](CO)C(=O)N[C@@H](CC(N)=O)C(=O)N[C@H](Cc2csc4ccccc24)C(=O)N[C@@H](c2ccccc2)C(=O)N[C@@H](CCCCNC3=O)C(=O)N[C@H](Cc2ccccc2)C(=O)N[C@H](CCC(N)=O)C(=O)N[C@H](CCCNC(=N)N)C(=O)N[C@@H](CCCNC(=N)N)C(=O)N1)C(N)=O
4.9 µM | C[C@@H]1NC(=O)[C@H](CO)NC(=O)[C@@H](Cc2ccc3ccccc3c2)NC(=O)c2cc3cc(c2)C(=O)NC[C@@H](C(=O)N[C@@H](CCCN)C(=O)N[C@H](CCCNC(=N)N)C(=O)N[C@@H](Cc2ccccc2)C(=O)N[C@H](C)C(N)=O)NC(=O)[C@H](CCCNC(=N)N)NC(=O)[C@@H](CCCNC(=N)N)NC(=O)[C@@H](CCC(N)=O)NC(=O)[C@@H](Cc2ccccc2)NC(=O)[C@H](CCCCNC3=O)NC(=O)[C@H](c2ccccc2)NC(=O)[C@@H](Cc2ccc3ccccc3c2)NC1=O
4.8 µM | CC(C)C[C@H]1NC(=O)[C@@H](Cc2ccccc2)NC(=O)[C@@H]2CCCCNC(=O)c3cc(cc(c3)C(=O)N[C@H](Cc3ccc4ccccc4c3)C(=O)N[C@@H](CO)C(=O)N[C@@H](CC(N)=O)C(=O)N[C@H](Cc3ccc4ccccc4c3)C(=O)N[C@@H](c3ccccc3)C(=O)N2)C(=O)NC[C@@H](C(=O)N[C@@H](CCCN)C(=O)N[C@H](CCCNC(=N)N)C(=O)N[C@@H](Cc2ccccc2)C(=O)N[C@H](C)C(N)=O)NC(=O)[C@H](CCCNC(=N)N)NC(=O)[C@@H](CCCNC(=N)N)NC1=O
4.5 µM | C[C@@H]1NC(=O)[C@@H](Cc2ccccc2)NC(=O)[C@@H]2CCCCNC(=O)c3cc(cc(c3)C(=O)N[C@H](Cc3ccc4ccccc4c3)C(=O)N[C@@H](CO)C(=O)N[C@@H](CC(N)=O)C(=O)N[C@H](Cc3ccc4ccccc4c3)C(=O)N[C@@H](c3ccccc3)C(=O)N2)C(=O)NC[C@@H](C(=O)N[C@@H](CCCN)C(=O)N[C@H](CCCNC(=N)N)C(=O)N[C@H](C(=O)N[C@H](C)C(N)=O)c2ccccc2)NC(=O)[C@H](CCCNC(=N)N)NC(=O)[C@@H](CCCNC(=N)N)NC1=O
2.6 µM | C[C@@H](O)[C@H](NC(=O)[C@H](Cc1ccccc1)NC(=O)[C@@H](CCCNC(=N)N)NC(=O)[C@H](CCCN)NC(=O)[C@@H]1CNC(=O)c2cc3cc(c2)C(=O)N[C@H](Cc2ccc4ccccc4c2)C(=O)N[C@@H](CO)C(=O)N[C@@H](CC(N)=O)C(=O)N[C@H](Cc2ccc4ccccc4c2)C(=O)N[C@@H](c2ccccc2)C(=O)N[C@@H](CCCCNC3=O)C(=O)N[C@H](Cc2ccccc2)C(=O)N[C@H](CCC(N)=O)C(=O)N[C@H](CCCNC(=N)N)C(=O)N[C@@H](CCCNC(=N)N)C(=O)N1)C(N)=O

same assay, conditions: nci-h358

EC50 | SMILES
Not Active | C[C@@H]1NC(=O)[C@@H](Cc2ccccc2)NC(=O)[C@@H]2CCCCNC(=O)c3cc(cc(c3)C(=O)N[C@H](Cc3ccc4ccccc4c3)C(=O)N[C@@H](CO)C(=O)N[C@@H](CC(N)=O)C(=O)N[C@H](Cc3ccc4ccccc4c3)C(=O)N[C@@H](c3ccccc3)C(=O)N2)C(=O)NC[C@@H](C(=O)N[C@@H](CN)C(=O)N[C@H](CCCNC(=N)N)C(=O)N[C@@H](Cc2ccc(F)cc2)C(=O)N[C@H](C)C(N)=O)NC(=O)[C@H](CCCNC(=N)N)NC(=O)[C@@H](CCCNC(=N)N)NC1=O
Not Active | C[C@@H]1NC(=O)[C@@H](Cc2ccccc2)NC(=O)[C@@H]2CCCCNC(=O)c3cc(cc(c3)C(=O)N[C@H](Cc3ccc4ccccc4c3)C(=O)N[C@@H](CO)C(=O)N[C@@H](CC(N)=O)C(=O)N[C@H](Cc3ccc4ccccc4c3)C(=O)N[C@@H](c3ccccc3)C(=O)N2)C(=O)NC[C@@H](C(=O)N[C@@H](CCCN)C(=O)N[C@H](CCCNC(=N)N)C(=O)N[C@@H](Cc2c[nH]c3ccccc23)C(=O)N[C@H](C)C(N)=O)NC(=O)[C@H](CCCNC(=N)N)NC(=O)[C@@H](CCCNC(=N)N)NC1=O
Not Active | C[C@@H](NC(=O)[C@H](Cc1ccccc1)NC(=O)[C@@H](CCCNC(=N)N)NC(=O)[C@H](CCCN)NC(=O)[C@@H]1CNC(=O)c2cc3cc(c2)C(=O)N[C@H](Cc2ccc4ccccc4c2)C(=O)N[C@@H](CCO)C(=O)N[C@@H](CC(N)=O)C(=O)N[C@H](Cc2ccc4ccccc4c2)C(=O)N[C@@H](c2ccccc2)C(=O)N[C@@H](CCCCNC3=O)C(=O)N[C@H](Cc2ccccc2)C(=O)N[C@H](CCC(N)=O)C(=O)N[C@H](CCCNC(=N)N)C(=O)N[C@@H](CCCNC(=N)N)C(=O)N1)C(N)=O

— ChEMBL document CHEMBL4842360, “Discovery of a Bicyclic Peptidyl Pan-Ras Inhibitor” (J Med Chem, 2021)
